{
  "source": "patent US10172963B2",
  "about": "“Method of binding a CSE1L tumor marker in a tumor of an animal” (priority 2011, dated 2019)",
  "format_in_all_cases": "cell-based",
  "key": {"[1]": {"test_system": "B16-Ras cells", "assay": "Gelatin zymography assay of microvesicular MMP-2", "details": "50 μM PD98059, or stable CSE1L shRNA transfection; microvesicles from conditioned media of serum-starved cells", "description": "Microvesicles harvested from cell number-standardized conditioned media were resolved using 10% SDS-PAGE containing 1 mg/ml gelatin. The gel was washed twice with 2.5% Triton X-100 for 30 min to remove SDS, and subsequently incubated in buffer containing 50 mM Tris-HCl (pH 7.6), 200 mM NaCl, and 10 mM CaCl2 at 37° C. for 24 h. The gel was stained with Comassie blue R-250 (0.125% Comassie blue R-250, 50% methanol, 10% acetic acid) for 30 min and destained with destaining solution (20% methanol, 10% acetic acid, 70% ddH2O) until the clear bands were visualized.\n(A) Gelatin zymographic activities of MMP-2 in microvesicles harvested form the cell number-standardized conditioned media of serum-starved B16-dEV, B16-Ras, B16-CSE1L, and B16-Ras/anti-CSE1L cells treated with or without DMSO or 50 μM PD98059 for 48 h as indicated. (B) The in vitro invasion abilities of B16-dEV, B16-Ras, B16-CSE1L, and B16-Ras/anti-CSE1L cells analyzed by Matrigel-based invasion assays. The mean±SD numbers of invasive cells were 109.4±12.6, 406.8±23.9, 311.25±32.4, and 46.75±8.7 cells per field for B16-dEV, B16-CSE1L, B16-Ras, and B16-Ras/anti-CSE1L cells, respectively."}, "[2]": {"test_system": "B16-Ras cells", "assay": "Levels of microvesicular MMP-2 in microvesicles from conditioned media (immunoblot)", "details": "50 μM, 48 h, serum-starved B16-Ras cells", "description": "(§1) Cells were washed with phosphate-buffered saline (PBS) and lysed in ice-cold radioimmunoprecipitation assay (RIPA) buffer [25 Mm Tris-HCl (pH 7.2), 0.1% SDS, 0.1% Triton X-100, 1% sodium deoxycholate, 150 mM NaCl, 1 mM EDTA, 1 mM sodium orthovanadate, 1 mM phenylmethylsulfonyl fluoride, 10 μg/ml aprotinin, 5 μg/ml leupeptin, 25 mM β-glycerophosphate, 5 mM sodium orthovanadate, and 5 mM sodium fluoride]. The protein concentrations were determined with a BCA protein assay kit (Pierce, Rockford, Ill., USA). Fifty micrograms of each protein sample was loaded onto SDS-polyacrylamide gel. Proteins were transferred to nitrocellulose membranes (Amersham Pharmacia, Buckinghamshire, UK). The membrane was blocked in blocking buffer [1% bovine serum albumin (BSA), 50 mM Tris-HCl (pH 7.6), 150 mM NaCl, and 0.1% Tween-20] at room temperature for 1 h. The blots were then incubated with primary antibodies at 4° C. overnight followed by incubation with secondary antibodies conjugated to horseradish peroxidase for 1 h. The levels of protein were detected by Forte Western HRP Substrate (Millipore Corp., Billerica, Mass., USA) according to the manufacturer's instructions.\nMicrovesicles were prepared from conditioned media or sera by size exclusion chromatography and ultracentrifugation. […] Fractions (1 ml) were collected, and the protein content was monitored by measuring absorbance at 280 nm. […]"}, "[3]": {"test_system": "B16-Ras cells", "assay": "CSE1L in cell lysates and conditioned media by immunoblotting", "details": "50 μM, 24 h", "description": "as §1, with “The membrane was blocked in blocking buffer [1% bovine serum albumin (BSA), 50 mM Tris-HCl (pH 7.6), 150 mM NaCl, and 0.1% Tween-20] at room temperature for 1 h. The blots were then incubated with primary antibodies at 4° C. overnight followed by incubation with secondary antibodies conjugated to horseradish peroxidase for 1 h.” left out\nFor Immunoblotting with biotin-conjugated antibodies, the biotin-conjugated antibody was prepared by biotinylating anti-CSE1L antibodies using the Biotin Labeling Kit-NH2 kit according to the manufacturer's protocol (Dojindo Laboratories, Kumamoto, Japan). The Immunoblot was then reacted with horseradish peroxidase (HRP)-conjugated streptavidin and the levels of protein were detected by Forte Western HRP Substrate. […]"}, "[4]": {"test_system": "B16-Ras cells", "assay": "Threonine phosphorylated CSE1L by immunoprecipitation and immunoblotting", "details": "50 μM, 24 h", "description": "Cells grown on plastic dishes were washed with PBS and incubated in immunoprecipitation lysis buffer [10 mM Tris-HCl (pH 7.4), 10 mM EDTA, 0.4% deoxycholic acid, 0.5% Triton X-100, 1 mM phenylmethylsulfonyl fluoride, 10 μg/ml aprotinin, 5 μg/ml leupeptin, 25 mM β-glycerophosphate, 5 mM sodium orthovanadate, and 5 mM sodium fluoride] at 4° C. for 20 min. Cells were scraped and disrupted by pipetting. The cell lysate was cleared of insoluble materials by centrifugation at 12,000 g for 10 min at 4° C., and the protein concentrations were determined with a BCA protein assay kit (Pierce). […]\n(A) Levels of cellular threonine phosphorylated CSE1L in B16-dEV cells and B16-Ras cells treated with DMSO or 50 μM PD98059 for 24 h were analyzed by immunoprecipitation with anti-CSE1L antibodies and immunoblotting with HRP-conjugated anti-phosphothreonine antibodies. […] (B) Levels of secretory threonine phosphorylated CSE1L in cell number-standardized conditioned media harvested from serum-starved B16-dEV cells and B16-Ras cells treated with DMSO or 50 μM PD98059 for 24 h were analyzed by immunoprecipitation with anti-CSE1L antibodies and immunoblotting with HRP-conjugated anti-phosphothreonine antibodies. […] (D) The levels of CSE1L in the pool of cancer sera and normal sera were analyzed by immunoblotting with anti-CSE1L antibodies (clone 24)."}, "[5]": {"details": "conditioned media of serum-starved B16-Ras cells"}},
  "data": [
    {"compound": "COc1cccc(-c2cc(=O)c3ccccc3o2)c1N", "note": "[PD98059]", "values": [
      {"measurement": "Effect on v-H-ras-induced increase in zymographic activity of microvesicular MMP-2", "setting": "[1]", "value": "attenuated the v-H-ras-induced increase in the zymographic activity of microvesicular MMP-2"},
      {"measurement": "Effect on v-H-ras-induced increase in microvesicular MMP-2", "setting": "[2]", "value": "attenuated v-H-ras-induced increase in MMP-2 in microvesicles"},
      {"measurement": "Effect on CSE1L expression in cells", "setting": "[3]; cell lysates", "value": "did not obviously affect CSE1L expression in cells"},
      {"measurement": "Effect on v-H-ras-induced increase in CSE1L secretion", "setting": "[3]; [5]", "value": "attenuated v-H-ras-induced increase in CSE1L secretion"},
      {"measurement": "Effect on v-H-ras-increased threonine phosphorylation of cellular CSE1L", "setting": "[4]; cell lysates of B16-Ras cells", "value": "inhibited v-H-ras-increased threonine phosphorylation in CSE1L"},
      {"measurement": "Effect on v-H-ras-increased secretion of threonine phosphorylated CSE1L", "setting": "[4]; [5]", "value": "inhibited v-H-ras-increased secretion of threonine phosphorylated CSE1L"}
    ]}
  ]
}
